# Experimental data published in ChEMBL document CHEMBL5303304, “EUbOPEN Chemogenomics Library - IncuCyte” (2023).
# Key:
# Format in all cases: toxicity, cell-based
# HEK-293T = assay: Incucyte cell viability with HEK293T; conditions: human, 10 µM, compound concentration 10 uM
# Fibroblast = assay: Incucyte cell viability with human fibroblast; conditions: 10 µM, compound concentration 10 uM
# U2OS = assay: Incucyte cell viability with U2OS; conditions: human, 10 µM, compound concentration 10 uM
# Note: unitless GR value; below 1 slowed growth and below 0 cell loss.
SMILES,"Growth Rate (HEK-293T; 6 h, replicate number 1)","Growth Rate (HEK-293T; 6 h, replicate number 2)","Growth Rate (HEK-293T; 12 h, replicate number 1)","Growth Rate (HEK-293T; 12 h, replicate number 2)","Growth Rate (HEK-293T; 18 h, replicate number 1)","Growth Rate (HEK-293T; 18 h, replicate number 2)","Growth Rate (HEK-293T; 24 h, replicate number 1)","Growth Rate (HEK-293T; 24 h, replicate number 2)","Growth Rate (Fibroblast; 6 h, replicate number 2)","Growth Rate (Fibroblast; 12 h, replicate number 1)","Growth Rate (Fibroblast; 12 h, replicate number 2)","Growth Rate (Fibroblast; 18 h, replicate number 1)","Growth Rate (Fibroblast; 18 h, replicate number 2)","Growth Rate (Fibroblast; 24 h, replicate number 1)","Growth Rate (Fibroblast; 24 h, replicate number 2)","Growth Rate (U2OS; 0 h, replicate number 1)","Growth Rate (U2OS; 6 h, replicate number 1)","Growth Rate (U2OS; 6 h, replicate number 2)","Growth Rate (U2OS; 12 h, replicate number 1)","Growth Rate (U2OS; 12 h, replicate number 2)",other results
c1ccc2c(c1)SCc1c-2[nH]c2ccccc12,-0.95,-0.96,-0.76,-0.7,-0.53,-0.49,-0.37,-0.38,-1,-0.96,-0.98,-0.86,-0.94,-0.75,-0.84,-0.33,-0.4,-0.66,-0.65,-0.52,"Growth Rate (Fibroblast; 0 h, replicate number 1): -1; Growth Rate (Fibroblast; 6 h, replicate number 1): -0.99; Growth Rate (U2OS; 18 h, replicate number 1): -0.63; Growth Rate (U2OS; 18 h, replicate number 2): -0.49; Growth Rate (U2OS; 24 h, replicate number 1): -0.5; Growth Rate (U2OS; 24 h, replicate number 2): -0.42"
Cc1ccc(NC(=O)c2ccc3c(c2)OCCO3)cc1NC(=O)c1ccc2nc(OCCN3CCCC3)ccc2c1,-0.91,-0.96,-0.78,-0.81,-0.56,-0.61,-0.43,-0.45,-0.58,-0.3,-0.27,-0.2,-0.22,-0.09,-0.05,0.21,0.15,0.35,-0.04,0.05,"Growth Rate (Fibroblast; 0 h, replicate number 2): -0.85; Growth Rate (Fibroblast; 6 h, replicate number 1): -0.21; Growth Rate (U2OS; 18 h, replicate number 1): -0.16; Growth Rate (U2OS; 18 h, replicate number 2): -0.04; Growth Rate (U2OS; 24 h, replicate number 1): -0.12; Growth Rate (U2OS; 24 h, replicate number 2): -0.01"
Cc1cc(Cn2c(N3CC4(CNC4)C3)nc3c(N4CCN(C)CC4)cc(Cl)cc32)cc(C)c1F,-0.99,-1,-0.88,-0.92,-0.67,-0.74,-0.51,-0.56,-1,-0.99,-1,-0.95,-0.98,-0.88,-0.93,-1,-0.98,-0.99,-0.97,-0.92,"Growth Rate (Fibroblast; 0 h, replicate number 1): -1; Growth Rate (U2OS; 18 h, replicate number 1): -0.92; Growth Rate (U2OS; 18 h, replicate number 2): -0.84; Growth Rate (U2OS; 24 h, replicate number 1): -0.79; Growth Rate (U2OS; 24 h, replicate number 2): -0.77"
C#Cc1cnc2[nH]cc(-c3cccc4c3CCN4C(=O)[C@@H]3CCCN3C#N)c2c1,-0.95,-0.98,-0.75,-0.78,-0.46,-0.5,-0.29,-0.34,-1,-0.63,-0.69,-0.48,-0.58,-0.36,-0.41,0.82,0.06,0.45,-0.58,-0.19,"Growth Rate (Fibroblast; 0 h, replicate number 1): -1; Growth Rate (Fibroblast; 6 h, replicate number 1): -0.83; Growth Rate (U2OS; 18 h, replicate number 1): -0.68; Growth Rate (U2OS; 18 h, replicate number 2): -0.52; Growth Rate (U2OS; 24 h, replicate number 1): -0.58; Growth Rate (U2OS; 24 h, replicate number 2): -0.56"
